The source of these data is EP0361645B1, “Organic hydrazine derivatives for pharmaceutical use” (ROHM AND HAAS COMPANY, priority 1988, dated 1990).

This experiment relates to Kr cells. The experiment is described as follows: Resistant Kr cell populations: response and ecdysteroid receptor activity. It counts as cell-based, Drosophila. As to conditions: for response of surviving cells (process elaboration, proliferation): four weeks in 1 X 10^-6 M 20 hydroxyecdysone or 1 X 10^-4 M Example No. 3; for ^3H-ponasterone A bound by resistant cell populations: populations reared in 1 X 10^-6 M 20-hydroxyecdysone or 1 X 10^-4 M Example No. 3, solvent controls 10.1. As for the experimental part:
Resistant Kr cell populations were reared by incubating cells at an initial density of 8 X 10^6 cells/ml with hormone or Example No. 3. The cells killed by treatment provide a feeder layer for the resistant populations. […] Ponasterone binding was assayed as described below and protein concentrations were determined using the Biorad method. This cross-resistance is compelling evidence that 20-hydroxyecdysone and Example No. 3 act through the ecdysone receptor.

`CC(C)(O)CC[C@@H](O)[C@](C)(O)[C@H]1CC[C@@]2(O)C3=CC(=O)[C@@H]4C[C@@H](O)[C@@H](O)C[C@]4(C)[C@H]3CC[C@]12C` [20-hydroxyecdysone, reference compound]: the “response of surviving cells (process elaboration, proliferation)” value was “do not respond to either compound” and the “^3H-ponasterone A bound by resistant cell populations” value is 1.5 femtomoles ^3H-ponasterone A per mg cytosolic protein.
In the case of `CC(C)(C)N(NC(=O)c1ccccc1)C(=O)c1ccccc1` [Example No. 3, N'-t-butyl-N,N'-dibenzoylhydrazine], the “response of surviving cells (process elaboration, proliferation)” value is “do not respond to either compound” and the “^3H-ponasterone A bound by resistant cell populations” value is 1.4 femtomoles ^3H-ponasterone A per mg cytosolic protein.
